The values that follow are results of earlier work, collected in patent US11672748B2, “Aqueous hair conditioner compositions containing solubilized anti-dandruff actives” (The Procter & Gamble Company, priority 2020, dated 2023).

For the data set the following is noted: in water.

On to `C=CC(C)CCCC(C)(C)O` (centres unmarked) [Dihydro Myrcenol], for which the “Solubility in H2O (g/L)” value is “Negligible (lower than 0.1) g/L”.

For the molecule `CCCCCCCCCCCC(=O)N(C)CC(=O)OC(C)C` [Isoropyl N-Lauroyl Sarcosinate], the “Solubility in H2O (g/L)” value is on record as “(lower than 0.1) g/L”.
